Article PMC12595484, “Optimizing multifunctional fluorescent ligands for intracellular labeling” (Proceedings of the National Academy of Sciences of the …, 2025)

Test system: HEK293T cells expressing msGFP–HaloTag localized to the mitochondrial outer membrane
Experiment: HEK293T labeling and fluorescence microscopy
Assay type: cell-based
From the text: Plasmid construction for mitochondria imaging and affinity purification. HaloTag, amplified from the pHTC HaloTag CMV-neo Vector (Promega; G7711) and monomeric-superfolder green fluorescent protein (msGFP; lab stock), was fused to the mitochondrial targeting signal from OMP25,8 interspacing flexible GS(GSS)4 linkers between each domain by PCR Splicing by Overlap Extension (SOE). This construct was subcloned into hSynapsin promoter bearing a copy of FUGW.9 FUGW was a gift from David Baltimore (Addgene plasmid # 14883; RRID:
Addgene_14883).10 This construct was designated as pF(UG) hSyn HaloTag-TEV-4×GS-msGFP- […]
HEK293T cell culture. HEK293T cells (ATCC) were passaged before 80% confluency by trypsinization (Corning; 25-053-CI) and trituration. The cell suspension was then plated on glass coverslips (Warner instruments; 64-0734, CS-18R17) coated with poly-D-lysine (Thermofisher; ICN10269491) and cultured in Dulbecco's modified Eagle medium (DMEM; ThermoFisher; 11965-118) supplemented with 10% (v/v) fetal bovine serum (FBS, Atlanta Biological) and penicillin/streptomycin (pen/strep; ThermoFisher; MT-30-001-CI) at 37 °C in a humidified 5% (v/v) CO2 environment following ATCC guidelines. These HEK293T cells were tested for mycoplasma contamination using the Universal Mycoplasma Detection Kit (ATCC; 30-1012K) and validated using Short Tandem Repeat profiling by ATCC (ATCC; 135-XV) within the previous year or were from newly purchased stock from ATCC. HEK293T cells were transfected with pF(UG) hSyn HaloTag-TEV-4×GS-msGFP-mito using a standard calcium phosphate protocol11 or using lipofectamine LTX reagent (ThermoFisher; 15338100). We note that this plasmid is optimized for lentivirus-mediated expression, but robust expression in HEK293T cells […]
HEK293T labeling and fluorescence microscopy. One day after HEK293T cell transfection, the GFP fluorescence signal was confirmed, and HaloTag ligand labeling experiments were conducted. For pulse–chase experiments, HEK293T cells were incubated with biotin-HaloTag ligand (17HTL; #G8281, Promega) at either 100 nM or 10 μM for 1 hour at 37 °C and chased with 100 nM of JF549-HaloTag ligand (2HTL). We also evaluated a commercial biotin-HaloTag ligand […]
indicated in the product information12 and from a previous publication.13 For labeling with biotin-JF-HaloTag ligands 13HTL–16HTL, cells were incubated with 100 nM or 1 µM ligand for 0.5–2 h at 37 °C. For imaging, the coverslips containing HEK293T cells were fixed with 4% (w/v) paraformaldehyde in PBS at 37 °C for 10 min, washed with PBS (3×), and mounted on glass slides with ProLong Glass Antifade Mountant with NucBlueTM Stain (ThermoFisher; P36981). These cells were imaged using a Zeiss LSM 880 with Airyscan and a plan-apochromatic 63×/1.40 oil objective in Fast Airyscan mode. The same image acquisition settings were used for each trial and condition. Images were then processed with automatic Airyscan deconvolution settings. For quantitation of labeling intensity, ROIs were drawn surrounding individual HEK cells, and the average fluorescence ratio (JF/msGFP) from multiple cells in each condition was measured; no background subtraction was necessary. […]
JF608-HaloTag ligand (14HTL), biotin-JF646-HaloTag ligand (15HTL), or biotin-JF635-HaloTag ligand (16HTL) for 1 h at 37 °C, washed 3× with dye-free media, then fixed with 4% paraformaldehyde in 0.1 M phosphate buffer for 15 min at 37 °C. Fixed cells were then washed 3× in 1× PBS and incubated with Hoechst 33342 (5µg/mL) for 15 min at 22 °C as a nuclear counterstain. Airyscan imaging was performed on a Zeiss LSM 980 with Airyscan 2 confocal microscope using a Plan APO 63×/1.4 oil DIC M27 objective. The same acquisition settings were used for all constructs labeled with 13HTL–16HTL. These single plane images were bulk processed in ZEN Blue (Zeiss) with automatic Airyscan settings.
Dye loading kinetics. Live U2OS.H2B.HaloTag stable cells were labeled over a time course of […]

SMILES | Pearson's correlation coefficient between rhodamine and GFP signals | intracellular labeling by live-cell imaging
C[Si]1(C)c2cc(N3CC(F)C3)ccc2C2(OC(=O)c3ccc(C(=O)NCCOCCOCCCCCCCl)cc32)c2ccc(N3CC(F)C3)cc21 [6HTL, JF635–HaloTag ligand, reference compound] | 0.92 | 
O=C(CCCCC1SCC2NC(=O)NC21)NCCOCCOCCNC(=O)C1C[N+](=c2ccc3c(-c4cc(C(=O)NCCOCCOCCCCCCCl)ccc4C(=O)[O-])c4ccc(N5CCC5)cc4oc-3c2)C1 (stereo not drawn) [13HTL, biotin–JF549–HaloTag ligand] |  | low intracellular signal
C[Si]1(C)C2=CC(=[N+]3CC(C(=O)NCCOCCOCCNC(=O)CCCC[C@@H]4SC[C@@H]5NC(=O)N[C@@H]54)C3)C=CC2=C(c2cc(C(=O)NCCOCCOCCCCCCCl)ccc2C(=O)[O-])c2ccc(N3CCC3)cc21 (stereo partly drawn) [15HTL, biotin–JF646–HaloTag ligand] | 0.89 | robust labeling and colocalization with mitochondrial-localized GFP
C[Si]1(C)C2=CC(=[N+]3CC(F)(C(=O)NCCOCCOCCNC(=O)CCCC[C@@H]4SC[C@@H]5NC(=O)N[C@@H]54)C3)C=CC2=C(c2cc(C(=O)NCCOCCOCCCCCCCl)ccc2C(=O)[O-])c2ccc(N3CC(F)C3)cc21 (stereo partly drawn) [16HTL, biotin–JF635–HaloTag ligand] | 0.87 | robust labeling and colocalization with mitochondrial-localized GFP
